From article PMC4700511 (Biochemistry, 2015)
≈ marks a conversion by molar mass, not a printed value.

Columns and labels:
[1] = tested on: E. coli DH10B pBCSK(−) producing VIM-2 (228R); experiment: MIC by agar dilution, E. coli DH10B pBCSK; assay type: cell-based; details: Escherichia coli
[2] = tested on: E. coli DH10B pBCSK(−) producing R228Q; experiment: MIC by agar dilution, E. coli DH10B pBCSK; assay type: cell-based; details: Escherichia coli
[3] = tested on: E. coli DH10B pBCSK(−) producing R228X (other variants); experiment: MIC by agar dilution, E. coli DH10B pBCSK; assay type: cell-based; details: Escherichia coli, R228X: range of MIC values of the other variants; MHA
VIM-24 [4] = target: T1, VIM-24 (Escherichia coli, UniProt Q5U7L7, R205L); experiment: Hydrolysis of cefepime and ceftazidime by periplasm preparations, VIM-24; assay type: biochemical, Klebsiella pneumoniae; details: VIM-24 periplasmic preparation; 400 μM ceftazidime
[5] = tested on: E. coli DH10B pBCSK(−) producing R228M; experiment: MIC by agar dilution, E. coli DH10B pBCSK; assay type: cell-based; details: Escherichia coli
VIM-24 [6] = assay type: biochemical, Klebsiella pneumoniae; details: VIM-24 (R228L) vs VIM-2
[7] = tested on: E. coli DH10B pBCSK(−) producing R228P; experiment: MIC by agar dilution, E. coli DH10B pBCSK; assay type: cell-based; details: Escherichia coli
E. coli pBC SK(−) = experiment: MIC by agar dilution, E. coli DH10B with empty pBC SK; assay type: cell-based; details: Escherichia coli
[8] = tested on: E. coli DH10B pBCSK(−) producing R228Y; experiment: MIC by agar dilution, E. coli DH10B pBCSK; assay type: cell-based; details: Escherichia coli
VIM-2 = VIM-2 (Escherichia coli, UniProt Q5U7L7); experiment: Hydrolysis of cefepime and ceftazidime by periplasm preparations, VIM-2; assay type: biochemical, P. aeruginosa; details: VIM-2 periplasmic preparation; 400 μM ceftazidime
[9] = tested on: E. coli DH10B pBCSK(−) producing VIM-24 (R228L); experiment: MIC by agar dilution, E. coli DH10B pBCSK; assay type: cell-based; details: Escherichia coli
[10] = tested on: E. coli DH10B pBCSK(−) producing R228K; experiment: MIC by agar dilution, E. coli DH10B pBCSK; assay type: cell-based; details: Escherichia coli
VIM-24 [11] = target: T1, VIM-24; assay type: biochemical, Klebsiella pneumoniae; details: VIM-24; substrate hydrolysis, 10 mM HEPES pH 7.5, 25 °C
[12] = tested on: VIM-24-producing K. pneumoniae; experiment: Imipenem MIC of the clinical isolate, VIM-24-producing K. pneumoniae; assay type: cell-based; details: Klebsiella pneumoniae, read-out: imipenem MIC, VIM-24-producing K. pneumoniae
[13] = tested on: VIM-2-producing P. aeruginosa; experiment: Imipenem MIC of the clinical isolate, VIM-2-producing P. aeruginosa; assay type: cell-based, Pseudomonas aeruginosa
[14] = tested on: CC(=O)OCC1=C(C(=O)O)N2C(=O)[C@@H](NC(=O)Cc3cccs3)[C@H]2SC1; experiment: purified protein, by the assay type; details: other: VIM-2, substrate hydrolysis, 10 mM HEPES pH 7.5, 25 °C
[15] = tested on: C[C@@H](O)[C@H]1C(=O)N2C(C(=O)O)=C(SCCN=CN)C[C@H]12; experiment: purified protein, by the assay type; details: other: VIM-2, substrate hydrolysis, 10 mM HEPES pH 7.5, 25 °C
[16] = tested on: O=C(Cc1cccs1)N[C@@H]1C(=O)N2C(C(=O)O)=C(/C=C/c3ccc([N+](=O)[O-])cc3[N+](=O)[O-])CS[C@H]12; experiment: purified protein, by the assay type; details: other: VIM-2, substrate hydrolysis, 10 mM HEPES pH 7.5, 25 °C

Q: Which MIC ([1]; MHA) does the source give for CC(C)(O/N=C(\C(=O)N[C@@H]1C(=O)N2C(C(=O)[O-])=C(C[n+]3ccccc3)CS[C@H]12)c1csc(N)n1)C(=O)O [ceftazidime] here?
A: 16 µg/mL (≈ 29.3 µM)

Q: What about the MIC ([1]; MHA + 5 μM EDTA) of the same compound?
A: 16 µg/mL

Q: What about the MIC ([1]; MHA + 250 μM Zn^2+) of the same compound?
A: 32 µg/mL

Q: What about the MIC ([2]; MHA) of the same compound?
A: 128 µg/mL (≈ 234 µM)

Q: And the MIC ([2]; MHA + 5 μM EDTA)?
A: 128 µg/mL

Q: And the MIC ([2]; MHA + 250 μM Zn^2+)?
A: 512 µg/mL

Q: What about the MIC [3] of the same compound?
A: 16 to 128 µg/mL (≈ 29.3 to 234 µM)

Q: What about the “rate of hydrolysis (initial velocity) in periplasm” value (VIM-24 [4]) of the same compound?
A: 4e-07 M/s

Q: And the MIC ([5]; MHA)?
A: 128 µg/mL (≈ 234 µM)

Q: And the MIC ([5]; MHA + 5 μM EDTA)?
A: 64 µg/mL

Q: And the MIC ([5]; MHA + 250 μM Zn^2+)?
A: 256 µg/mL

Q: What about the “kcat/KM increase of VIM-24 compared to VIM-2” value (VIM-24 [6]) of the same compound?
A: 6 fold

Q: And the MIC ([7]; MHA)?
A: 1 µg/mL (≈ 1.83 µM)

Q: What about the MIC ([7]; MHA + 5 μM EDTA) of the same compound?
A: ≤ 1 µg/mL

Q: What about the MIC ([7]; MHA + 250 μM Zn^2+) of the same compound?
A: 4 µg/mL

Q: What about the MIC (E. coli pBC SK(−); MHA) of the same compound?
A: 0.06 µg/mL (≈ 0.11 µM)

Q: And the MIC (E. coli pBC SK(−); MHA + 5 μM EDTA)?
A: ≤ 1 µg/mL

Q: What about the MIC (E. coli pBC SK(−); MHA + 250 μM Zn^2+) of the same compound?
A: ≤ 1 µg/mL

Q: And the MIC ([8]; MHA)?
A: 64 µg/mL (≈ 117 µM)

Q: And the MIC ([8]; MHA + 5 μM EDTA)?
A: 64 µg/mL

Q: What about the MIC ([8]; MHA + 250 μM Zn^2+) of the same compound?
A: 128 µg/mL

Q: What about the “rate of hydrolysis (initial velocity) in periplasm” value (VIM-2) of the same compound?
A: measurable rates of hydrolysis were not obtained

Q: What about the MIC ([9]; MHA) of the same compound?
A: 64 µg/mL (≈ 117 µM)

Q: And the MIC ([9]; MHA + 5 μM EDTA)?
A: 32 µg/mL

Q: What about the MIC ([9]; MHA + 250 μM Zn^2+) of the same compound?
A: 128 µg/mL

Q: And the MIC ([10]; MHA)?
A: 1 µg/mL (≈ 1.83 µM)

Q: And the MIC ([10]; MHA + 5 μM EDTA)?
A: ≤ 1 µg/mL

Q: And the MIC ([10]; MHA + 250 μM Zn^2+)?
A: ≤ 1 µg/mL

Q: CO/N=C(\C(=O)N[C@@H]1C(=O)N2C(C(=O)O)=C(CSc3nc(=O)c(=O)[nH]n3C)CS[C@H]12)c1csc(N)n1 [ceftriaxone] was tested. Which MIC ([1]; MHA) did it give?
A: 8 µg/mL (≈ 14.4 µM)

Q: And the MIC ([2]; MHA)?
A: 32 µg/mL (≈ 57.7 µM)

Q: And the MIC [3]?
A: 1 to 16 µg/mL (≈ 1.8 to 28.9 µM)

Q: And the MIC ([5]; MHA)?
A: 16 µg/mL (≈ 28.9 µM)

Q: What about the MIC ([7]; MHA) of the same compound?
A: 0.5 µg/mL (≈ 0.902 µM)

Q: What about the MIC (E. coli pBC SK(−); MHA) of the same compound?
A: 0.5 µg/mL (≈ 0.902 µM)

Q: And the MIC ([8]; MHA)?
A: 16 µg/mL (≈ 28.9 µM)

Q: And the MIC ([9]; MHA)?
A: 8 µg/mL (≈ 14.4 µM)

Q: What about the MIC ([10]; MHA) of the same compound?
A: 1 µg/mL (≈ 1.8 µM)

Q: With CC(=O)OCC1=C(C(=O)O)N2C(=O)[C@@H](NC(=O)Cc3cccs3)[C@H]2SC1 [cephalothin] as the compound, how does the MIC ([1]; MHA) read?
A: 256 µg/mL (≈ 646 µM)

Q: And the MIC ([2]; MHA)?
A: 1020 µg/mL (≈ 2580 µM)

Q: What about the MIC [3] of the same compound?
A: 64 to 256 µg/mL (≈ 161 to 646 µM)

Q: And the MIC ([5]; MHA)?
A: 256 µg/mL (≈ 646 µM)

Q: What about the kcat (VIM-24 [11]) of the same compound?
A: 150 ± 9 s⁻¹

Q: And the MIC ([7]; MHA)?
A: 16 µg/mL (≈ 40.4 µM)

Q: And the MIC (E. coli pBC SK(−); MHA)?
A: 8 µg/mL (≈ 20.2 µM)

Q: And the MIC ([8]; MHA)?
A: 256 µg/mL (≈ 646 µM)

Q: What about the MIC ([9]; MHA) of the same compound?
A: 256 µg/mL (≈ 646 µM)

Q: And the MIC ([10]; MHA)?
A: 16 µg/mL (≈ 40.4 µM)

Q: Which MIC [12] does the source give for C[C@@H](O)[C@H]1C(=O)N2C(C(=O)O)=C(SCCN=CN)C[C@H]12 [imipenem] here?
A: 2 µg/mL

Q: And the MIC ([13]; Pseudomonas aeruginosa, read-out: imipenem MIC)?
A: 32 µg/mL

Q: What about the “imipenem MIC” value ([13]; VIM-2 harboring P. aeruginosa clinical isolate) of the same compound?
A: 32 µg/mL

Q: What about the MIC ([1]; MHA) of the same compound?
A: 0.5 µg/mL (≈ 1.67 µM)

Q: And the MIC ([1]; MHA + 5 μM EDTA)?
A: 0.5 µg/mL

Q: What about the MIC ([1]; MHA + 250 μM Zn^2+) of the same compound?
A: 1 µg/mL

Q: What about the MIC ([2]; MHA) of the same compound?
A: 4 µg/mL (≈ 13.4 µM)

Q: What about the MIC ([2]; MHA + 5 μM EDTA) of the same compound?
A: 4 µg/mL

Q: And the MIC ([2]; MHA + 250 μM Zn^2+)?
A: > 4 µg/mL

Q: And the MIC [3]?
A: 0.25 to 1 µg/mL (≈ 0.835 to 3.34 µM)

Q: And the MIC ([5]; MHA)?
A: 2 µg/mL (≈ 6.68 µM)

Q: What about the MIC ([5]; MHA + 5 μM EDTA) of the same compound?
A: 1 µg/mL

Q: What about the MIC ([5]; MHA + 250 μM Zn^2+) of the same compound?
A: 4 µg/mL

Q: What about the Km (VIM-24 [11]) of the same compound?
A: 5 ± 0.7 µM

Q: And the kcat (VIM-24 [11])?
A: 8.8 ± 0.3 s⁻¹

Q: What about the MIC ([7]; MHA) of the same compound?
A: 0.5 µg/mL (≈ 1.67 µM)

Q: What about the MIC ([7]; MHA + 5 μM EDTA) of the same compound?
A: ≤ 0.125 µg/mL

Q: What about the MIC ([7]; MHA + 250 μM Zn^2+) of the same compound?
A: 0.25 µg/mL

Q: What about the MIC (E. coli pBC SK(−); MHA) of the same compound?
A: 0.25 µg/mL (≈ 0.835 µM)

Q: And the MIC (E. coli pBC SK(−); MHA + 5 μM EDTA)?
A: ≤ 0.125 µg/mL

Q: What about the MIC (E. coli pBC SK(−); MHA + 250 μM Zn^2+) of the same compound?
A: 0.25 µg/mL

Q: What about the MIC ([8]; MHA) of the same compound?
A: 1 µg/mL (≈ 3.34 µM)

Q: And the MIC ([8]; MHA + 5 μM EDTA)?
A: 1 µg/mL

Q: What about the MIC ([8]; MHA + 250 μM Zn^2+) of the same compound?
A: 1 µg/mL

Q: And the MIC ([9]; MHA)?
A: 0.5 µg/mL (≈ 1.67 µM)

Q: What about the MIC ([9]; MHA + 5 μM EDTA) of the same compound?
A: 0.5 µg/mL

Q: And the MIC ([9]; MHA + 250 μM Zn^2+)?
A: 1 µg/mL

Q: And the MIC ([10]; MHA)?
A: 0.25 µg/mL (≈ 0.835 µM)

Q: What about the MIC ([10]; MHA + 5 μM EDTA) of the same compound?
A: 0.25 µg/mL

Q: And the MIC ([10]; MHA + 250 μM Zn^2+)?
A: 0.25 µg/mL

Q: O=C(Cc1cccs1)N[C@@H]1C(=O)N2C(C(=O)O)=C(/C=C/c3ccc([N+](=O)[O-])cc3[N+](=O)[O-])CS[C@H]12 [nitrocefin] was tested. Which kcat (VIM-24 [11]) did it give?
A: 171 ± 4 s⁻¹

Q: Which Km [14] does the source give for VIM-2 (Escherichia coli) here?
A: 17 ± 2 µM

Q: And the kcat [14]?
A: 168 ± 8 s⁻¹

Q: What about the kcat/Km [14] of the same compound?
A: 9.8e+06 M⁻¹ s⁻¹

Q: And the Km [15]?
A: 12 ± 1 µM

Q: What about the kcat [15] of the same compound?
A: 45 ± 1 s⁻¹

Q: What about the kcat/Km [15] of the same compound?
A: 3.6e+06 M⁻¹ s⁻¹

Q: What about the Km [16] of the same compound?
A: 13 ± 1 µM

Q: What about the kcat [16] of the same compound?
A: 430 ± 20 s⁻¹

Q: What about the kcat/Km [16] of the same compound?
A: 3.3e+07 M⁻¹ s⁻¹
